The values that follow come from patent US9241976B2, “Use of HDL-related molecules to treat and prevent proinflammatory conditions” (THE REGENTS OF THE UNIVERSITY OF CALIFORNIA, priority 2011, dated 2016).

One assay relates to Akt. The experiment in a line: Insulin-stimulated phosphorylation of Akt in OV2008 cells, Western blot. It is filed as cell-based, human. As to conditions: 10 μg/ml, insulin 200 nM. The method, then:
FIGS. 10A-10B. Effect of L-4F on the insulin-stimulated activation of downstream signaling molecules in OV2008 cells. After an overnight starvation, OV2008 cells were treated with L-4F (10 μg/ml) for 1 h, and insulin was added at a final concentration of 200 nM. Cell lysates were collected at various time points and subjected to Western blot analysis. FIG. 10A, L-4F inhibits insulin-stimulated phosphorylation of p70s6 kinase and subsequent HIF-1α expression in OV2008 cells. FIG. 10B, effect of L-4F on insulinstimulated phosphorylation of ERK1/2 and Akt in OV2008 cells.
Western blot analyses were performed as described previously (Gao et al., 2011). In brief, cell lysates were collected in a lysis buffer containing 0.1 MNaCl, 5 mM EDTA, 50 μM sodium orthovanadate, 1% Triton X-100, and protease inhibitor tablet (Roche Diagnostics, Indianapolis, Ind.) in 50 mM Tris buffer, pH 7.5, loaded onto 4 to 12% Bis-Tris gel (Invitrogen), transferred to polyvinylidene difluoride membrane, and incubated with the appropriate antibodies. […]
Background: Immunoblotting shows a protein as a band on a membrane.

Another assay concerns HIF-1α. Nature of the assay: Immunofluorescence staining of nuclear HIF-1α in OV2008 cells. It is filed as cell-based, human. How it is done: Immunofluorescence staining was performed as described previously (Lee et al., 2006). In brief, OV2008 cells were plated onto a glass slip (Thermo Fisher Scientific) in 24-well plates at 4×10^4 cells per well and grown in complete medium overnight. After starvation overnight, cells were subjected to L-4F treatment in the presence or absence of stimulators. Then, cells were fixed in 4% neutral buffered formaldehyde for 25 min at room temperature, permeabilized with 0.5% Triton X-100 in PBS for 10 min, and blocked with 10% normal goat serum, 1% bovine serum albumin, and 0.3 M glycine prepared in PBS for 1 h. Cells were incubated with mouse anti-HIF-1α (1:200) overnight at 4° C. and incubated with Alexa Fluor 568 goat anti-mouse IgG (Invitrogen) for 1 h. Finally, cells were covered with VectaMount solution containing DAPI (Vector Laboratories, Burlingame, Calif.), and images were captured with a fluorescence microscope (Olympus IX70).

In the next assay the test system is ROS. The experiment in a line: Cellular reactive oxygen species, dichlorofluorescein oxidation assay in OV2008 cells. It is filed as cell-based, human. The settings on record: 10 μg/ml pretreatment 1 h. The method, then:
As described previously (Zhou et al., 2007; Lee et al., 2009), OV2008 cells were plated onto a glass slip (Thermo Fisher Scientific) in a 24-well plate at 4×10^4 cells per well, cultured overnight in normal cultured condition, starved in serum-free media overnight, and treated with L-4F (10 μg/ml) for 1 h. Then, dichlorofluorescein diacetate (DCFHDA, 10 μM) and insulin (200 nM)/CoCl2 (100 μM) were added and incubated with the cells for an additional 0.5 h. The cells were washed twice with phosphate-buffered saline (PBS). The images were captured with a fluorescence microscope (Olympus IX70; Olympus, Tokyo, Japan).

The next assay deals with CD31. The experiment in a line: CD31 immunohistochemistry of lung surface tumors. As to conditions: 100 mg/kg/d in chow diet for 3 weeks, vs control mice. It is filed as in vivo, mouse. The method, then:
Tumor tissues from the lung surface were fixed and embedded with paraffin, sectioned at […] thickness. Sections were deparaffinized with xylene, rehydrated with 100%, 90%, 70%, and 50% ethanol, treated with proteinase K at […] for 30 minutes, and treated with 3% H2O2 for 30 minutes at room temperature to inhibit endogenous peroxidase, blocked with 10% normal goat serum and 4% bovine serum albumin prepared in PBS for 3 hours, and then incubated with 1:50 rat antimouse monoclonal CD31 antibody overnight at 4° C. The sections were incubated with corresponding biotinylated secondary antibody for 1 hour, followed by incubation with Vectastain ABC Elite reagents.

The subject of the next assay is APC^min/+ mice. The experiment in a line: APC^min/+ mice study, intestinal tumors. The assay is classed as in vivo. As to conditions: C57BL/6J-APC^min/+ mice; 100 mg/kg/d in mouse chow for 8 weeks. How it is done: 6-week-old APC^Min/+ male mice on a C57BL/6J background were treated with bHDL 100 mg/kg/day administered in a chow diet. After 8 weeks treatment, mice were sacrificed. The entire intestine was immediately removed, fixed in formalin and 70% ethanol. The intestine was opened and examined under a dissecting microscope to count and measure the tumors.
Six-week-oldAPC^min/+ male mice on a C57BL/6J background were treated with L-4F or sc-4F at 100 mg/kg/d administered in a chow diet. After 8 weeks treatment, mice were sacrificed. The entire intestine was immediately removed, fixed in formalin and 70% ethanol. The intestine was opened and examined under a dissecting microscope to count and measure the tumors.

As for “Ac-DWFKAFYDKVAEKFKEAF-NH2 [L-4F, Ac-D-W-F-K-A-F-Y-D-K-V-A-E-K-F-K-E-A-F-NH2]”, the “insulin-stimulated phosphorylation of Akt” value in the assay on Akt is recorded as “no effect on the phosphorylation of Akt, except at 0.5 h”. For the same substance, the “nuclear expression of HIF-1α, post-treatment” value in the assay with HIF-1α (OV2008 cells stimulated first with CoCl2 or insulin, 10 μg/ml) is “decreased nuclear expression”. Besides, in the assay on HIF-1α (OV2008 cells, pretreatment), the “CoCl2- and insulin-induced accumulation of HIF-1α in nuclei” value was “dramatically reversed”. The “cellular ROS production induced by insulin and CoCl2” value in the assay on ROS was “dramatically prevented”. Further, the “CD31 expression in tumors” value in the assay with CD31 is on record as “significant decrease”. Further, in the assay with APC^min/+ mice, the “numbers of tumors of diameter 1-3 mm” value was 36.8; the “numbers of tumors of diameter >3 mm” value worked out at 5; the “total tumor numbers in the intestinal tract, percent of the control” value stood at 60%.
